Reference: patent publication US10703740B2, “Substituted benzimidazoles, their preparation and their use as pharmaceuticals” (NEOMED Institute, priority 2015, dated 2020)

Test system: human C-Myc transcription in MV-4-11 cells
Assay: Transcription of human C-Myc in human leukemic MV-4-11 cells (QuantiGene 2.0)
Format: cell-based
Conditions: Homo sapiens, MV4-11, 4 h, inhibition of C-Myc mRNA, 4 hours treatment, read-out: IC50 MV-4-11 Cell
Protocol: The effect of compounds on transcription of human C-Myc gene is monitored in human B-myelomonocytic leukemia cell line MV-4-11 (from American Type Culture Collection (ATCC), Manassas, Va., USA) using QuantiGene 2.0 assay kit (Affymetrix, Santa Clara, Calif., USA).
Typically, 8,000 MV-4-11 cells are plated in sterile 96-well plates (Costar #3598 from Fisher Scientific Canada, Ottawa, Ontario, Canada) in Iscove's medium supplemented with 10% fetal bovine serum, glutamine (2 mM), and penicillin (100 I.U.) and streptomycin (100 μg/mL) (all from Wisent Inc., St. Bruno, Quebec, Canada). Compounds are dissolved in DMSO at 30 mM. A series of 1:3 dilutions are first made in DMSO, and further 1:100 dilutions are made in serum-containing cell culture media. The final concentration of DMSO is 0.1% in cell culture media. After cells are treated with various concentrations of test compound for 4 hours, cells are lysed using Quantigene 2.0 sample processing kit (# QS0100). C-Myc mRNA is detected using a QuantiGene 2.0 assay kit (# QS0009) with gene-specific probe to human C-Myc (# SA-50182) following the manufacturer's recommendations. Luminescene signals are read on Flexstation II microplate reader (Molecular Devices, Sunnyvale, Calif., USA).

IC50	Compound
50 nM	CO[C@H]1C[C@@H](c2nc3ccc(-c4cc(C)c(=O)n(C)c4)cc3n2CCOC(F)(F)F)C1 [Compound 28b]
220 nM	Cc1cc(-c2ccc3nc(C4CCOCC4)n(CC(C)C(F)(F)F)c3c2)cn(C)c1=O (stereo not shown) [Compound 46a, 1,3-dimethyl-5-(2-(tetrahydro-2H-pyran-4-yl)-1-(3,3,3-trifluoro-2-methylpropyl)-1H-benzo[d]imidazol-6-yl)pyridin-2(1H)-one]
200 nM	Cc1cc(-c2ccc3nc([C@H]4CCCO4)n(CCOC(F)(F)F)c3c2)cn(C)c1=O (stereo in doubt) [Compound 30a, 1,3-dimethyl-5-[2-tetrahydrofuran-2-yl-3-[2-(trifluoromethoxy)ethyl]benzimidazol-5-yl]pyridin-2-one]
50 nM	CO[C@H]1C[C@H](c2nc3ccc(-c4cc(C)c(=O)n(C)c4)cc3n2CCOC(F)(F)F)C1 [Compound 28a]

Further lines, the compound ahead of its results:

Compound	IC50
COC[C@@H](C)n1c(C)nc2ccc(-c3cc(C)c(=O)n(C)c3)cc21 [Compound 11, 5-[3-[(1R)-2-methoxy-1-methyl-ethyl]-2-methyl-benzimidazol-5-yl]-1,3-dimethyl pyridin-2-one]	170 nM
COC[C@@H](C)n1c(C2CCOCC2)nc2ccc(-c3cc(C)c(=O)n(C)c3)cc21 [Compound 10, 5-[3-[(1R)-2-methoxy-1-methyl-ethyl]-2-tetrahydropyran-4-yl-benzimidazol-5-yl]-1,3-dimethyl-pyridin-2-one]	62 nM
COCCn1c(C)nc2ccc(-c3cc(C)c(=O)n(C)c3)cc21 [Compound 8, 5-[3-(2-methoxyethyl)-2-methyl-benzimidazol-5-yl]-1,3-dimethylpyridin-2-one]	790 nM
Cc1cc(-c2ccc3nc(C4CCC4)n(CCOC(F)(F)F)c3c2)cn(C)c1=O [Compound 6, 5-[2-cyclobutyl-3-[2-(trifluoromethoxy)ethyl]benzimidazol-5-yl]-1,3-dimethyl-pyridin-2-one]	56 nM
COCCn1c(C2CC2)nc2ccc(-c3cc(C)c(=O)n(C)c3)cc21 [Compound 7, 5-[2-cyclopropyl-3-(2-methoxyethyl)benzimidazol-5-yl]-1,3-dimethyl-pyridin-2-one]	520 nM
Cc1cc(-c2ccc3nc(C4(C)CCOCC4)n(CCOC(F)(F)F)c3c2)cn(C)c1=O [Compound 31, 1,3-dimethyl-5-(2-(4-methyltetrahydro-2H-pyran-4-yl)-1-(2-(trifluoromethoxy)ethyl)-1H-benzo[d]imidazol-6-yl)pyridin-2(1H)-one]	24 nM
CO[C@@H](C)Cn1c(C2CCC(F)(F)CC2)nc2ccc(-c3cc(C)c(=O)n(C)c3)cc21 [Compound 59, (S)-5-(2-(4,4-difluorocyclohexyl)-1-(2-methoxypropyl)-1H-benzo[d]imidazol-6-yl)-1,3-dimethylpyridin-2(1H)-one]	90 nM
CCOC[C@H](C)n1c(C2CCOCC2)nc2ccc(-c3cc(C)c(=O)n(C)c3)cc21 [Compound 48, (S)-5-(1-(1-ethoxypropan-2-yl)-2-(tetrahydro-2H-pyran-4-yl)-1H-benzo[d]imidazol-6-yl)-1,3-dimethylpyridin-2(1H)-one]	260 nM
CCc1cc(-c2ccc3nc(C4CC4)n(CCOC(F)(F)F)c3c2)cn(C)c1=O [Compound 14, 5-(2 cyclopropyl-3-(2-(trifluoromethoxy)ethyl)benzimidazol-5-yl)-3-ethyl-1-methylpyridin-2-one]	250 nM
CCO[C@@H](C)Cn1c(C2CCOCC2)nc2ccc(-c3cc(C)c(=O)n(C)c3)cc21 [Compound 40, (S)-5-(1-(2-ethoxypropyl)-2-(tetrahydro-2H-pyran-4-yl)-1H-benzo[d]imidazol-6-yl)-1,3-dimethylpyridin-2(1H)-one]	27 nM
Cc1cc(-c2ccc3nc(C4CCOCC4)n(C[C@H](C)OC(C)C)c3c2)cn(C)c1=O [Compound 67, (S)-5-(1-(2-isopropoxypropyl)-2-(tetrahydro-2H-pyran-4-yl)-1H-benzo[d]imidazol-6-yl)-1,3-dimethylpyridin-2(1H)-one]	26 nM
COC(C)Cn1c(C)nc2ccc(-c3cc(C)c(=O)n(C)c3)cc21 (stereo not shown) [Compound 21a, 5-[3-(2-methoxypropyl)-2-methylbenzimidazol-5-yl]-1,3-dimethylpyridin-2-one]	510 nM
COC[C@@H](C)n1c(C2CC(F)(F)C2)nc2ccc(-c3cc(C)c(=O)n(C)c3)cc21 [Compound 51, (R)-5-(2-(3,3-difluorocyclobutyl)-1-(1-methoxypropan-2-yl)-1H-benzo[d]imidazol-6-yl)-1,3-dimethylpyridin-2(1H)-one]	62 nM
CCOCCn1c(C2CCC(F)(F)CC2)nc2ccc(-c3cc(C)c(=O)n(C)c3)cc21 [Compound 61, 5-(2-(4,4-difluorocyclohexyl)-1-(2-ethoxyethyl)-1H-benzo[d]imidazol-6-yl)-1,3-dimethylpyridin-2(1H)-one]	84 nM
Cc1cc(-c2ccc3nc(C4CCOCC4)n(CCOCC(F)(F)F)c3c2)cn(C)c1=O [Compound 41, 1,3-dimethyl-5-(2-(tetrahydro-2H-pyran-4-yl)-1-(2-(2,2,2-trifluoroethoxy)ethyl)-1H-benzo[d]imidazol-6-yl)pyridin-2(1H)-one]	23 nM
CCOCCn1c(C2CCOCC2)nc2ccc(-c3cc(C)c(=O)n(C)c3)cc21 [Compound 60, 5-(1-(2-ethoxyethyl)-2-(tetrahydro-2H-pyran-4-yl)-1H-benzo[d]imidazol-6-yl)-1,3-dimethylpyridin-2(1H)-one]	17 nM

Same assay, conditions: inhibition of C-Myc mRNA, 4 hours treatment, read-out: IC50 MV-4-11 Cell

IC50	Compound
250 nM	Cc1cc(-c2ccc3nc(C4CCOCC4)n(CC(C)C(F)(F)F)c3c2)cn(C)c1=O (stereo not shown) [Compound 46b, 1,3-dimethyl-5-(2-(tetrahydro-2H-pyran-4-yl)-1-(3,3,3-trifluoro-2-methylpropyl)-1H-benzo[d]imidazol-6-yl)pyridin-2(1H)-one]
250 nM	COC(C)Cn1c(C2CC2)nc2ccc(-c3cc(C)c(=O)n(C)c3)cc21 (single isomer, unassigned) [Compound 23a, 5-[2-cyclopropyl-3-(2-methoxypropyl)benzimidazol-5-yl]-1,3-dimethylpyridin-2-one]
77 nM	Cc1cc(-c2ccc3nc(C4CCOC4)n(CCOC(F)(F)F)c3c2)cn(C)c1=O (single isomer, unassigned) [Compound 29b, 1,3-dimethyl-5-[2-tetrahydrofuran-3-yl-3-[2-(trifluoromethoxy)ethyl]benzimidazol-5-yl]pyridin-2-one]
220 nM	Cc1cc(-c2ccc3nc(C4CCOC4)n(CCOC(F)(F)F)c3c2)cn(C)c1=O (single isomer, unassigned) [Compound 29a, 1,3-dimethyl-5-[2-tetrahydrofuran-3-yl-3-[2-(trifluoromethoxy)ethyl]benzimidazol-5-yl]pyridin-2-one]
86 nM	COC(C)Cn1c(C2CCOCC2)nc2ccc(-c3cc(C)c(=O)n(C)c3)cc21 (single isomer, unassigned) [Compound 35b, 5-[3-(2-methoxypropyl)-2-tetrahydropyran-4-yl-benzimidazol-5-yl]-1,3-dimethyl pyridin-2-one]

More lines, now with the values behind:

Compound	IC50
COC1CC(c2nc3ccc(-c4cc(C)c(=O)n(C)c4)cc3n2CCOC(C)C)C1 (stereo not shown) [Compound 64, 5-[1-(2-isopropoxyethyl)-2-(3-methoxycyclobutyl)-1H-benzo[d]imidazol-6-yl]-1,3-dimethylpyridin-2(1H)-one]	51 nM
COC1CC(c2nc3ccc(-c4cc(C)c(=O)n(C)c4)cc3n2CCOC(C)C)C1 (stereo not shown) [Compound 65, 5-[1-(2-isopropoxyethyl)-2-(3-methoxycyclobutyl)-1H-benzo[d]imidazol-6-yl]-1,3-dimethylpyridin-2(1H)-one]	25 nM
5-[2-(3-methoxycyclobutyl)-1-(2-(2,2,2-trifluoroethoxy)ethyl)-1H-benzo[d]imidazol-6-yl]-1,3-dimethylpyridin-2(1H)-one [Compound 63]	17 nM
COC(C)Cn1cnc2ccc(-c3cc(C)c(=O)n(C)c3)cc21 (stereo not shown) [Compound 22b, 5-[3-(2-methoxypropyl)benzimidazol-5-yl]-1,3-dimethylpyridin-2-one]	780 nM

Molecular target: BRD4(BD1) (Homo sapiens (Human), UniProt O60885)
Assay: In vitro bromodomain inhibition assay (AlphaLISA)
Format: binding
Conditions: His-tagged BRD4 BD1 200 nM, biotinylated H4-tetraacetyl peptide 200 nM
Protocol: To measure activity of bromodomain inhibitors, a His-epitope tagged BRD4 BD149-170 is purchased from BPS Bioscience. BRD4 binding and inhibition is assessed by monitoring the engagement of biotinylated H4-tetraacetyl peptide (H4K5/8/12/16; AnaSpec #64989-025) with the target using the AlphaLISA technology (Perkin-Elmer). Specifically, in a 384 well OptiPlate, BRD4(BD1) (200 nM final) is pre-incubated with either DMSO (final 1.0% DMSO) or a compound dilution series in DMSO. All reagents are diluted in assay buffer containing 50 mM HEPES (pH 7.4), 100 mM NaCl, 0.1% (w/v) BSA, and 0.05% (w/v) CHAPS. After a 30 minute incubation at rt, H4 peptide is added (200 nM final) and the reaction is incubated an additional 30 minutes at rt. Alpha streptavidin donor beads and AlphaLISA nickel chelate acceptor beads are then added to a final concentration of 10 μg/mL each. After one hour, equilibration plates are read on an Envision instrument and IC50s calculated using a four parameter non-linear curve fit (results are shown in Table 1).

IC50	Compound
98 nM	COC[C@@H](C)n1c(C)nc2ccc(-c3cc(C)c(=O)n(C)c3)cc21 [Compound 11, 5-[3-[(1R)-2-methoxy-1-methyl-ethyl]-2-methyl-benzimidazol-5-yl]-1,3-dimethyl pyridin-2-one]
99 nM	COC[C@@H](C)n1c(C2CCOCC2)nc2ccc(-c3cc(C)c(=O)n(C)c3)cc21 [Compound 10, 5-[3-[(1R)-2-methoxy-1-methyl-ethyl]-2-tetrahydropyran-4-yl-benzimidazol-5-yl]-1,3-dimethyl-pyridin-2-one]
210 nM	COCCn1c(C)nc2ccc(-c3cc(C)c(=O)n(C)c3)cc21 [Compound 8, 5-[3-(2-methoxyethyl)-2-methyl-benzimidazol-5-yl]-1,3-dimethylpyridin-2-one]
91 nM	Cc1cc(-c2ccc3nc(C4CCC4)n(CCOC(F)(F)F)c3c2)cn(C)c1=O [Compound 6, 5-[2-cyclobutyl-3-[2-(trifluoromethoxy)ethyl]benzimidazol-5-yl]-1,3-dimethyl-pyridin-2-one]
280 nM	COCCn1c(C2CC2)nc2ccc(-c3cc(C)c(=O)n(C)c3)cc21 [Compound 7, 5-[2-cyclopropyl-3-(2-methoxyethyl)benzimidazol-5-yl]-1,3-dimethyl-pyridin-2-one]
